Test results taken from PubChem BioAssay AID2060908 (Molecular Pharmacology Branch, DTP, NCI, 2025).

Tested on: 186277-243-T-J2-PDC complex spheroids, viability
Assay: Anticancer human tumor 186277-243-T-J2-PDC patient-derived colon adenocarcinoma cell line growth inhibition [RAS]
Conditions: for IC50: curve of first compound; for viability, T/C: stronger effect = lower value
Procedure, shortened: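 Tumour cells grown as complex spheroids with HUVEC endothelial cells and mesenchymal stem cells, treated with RAS pathway inhibitor combinations. Each agent spans half-log steps from near clinical Cmax, or 10 microM where Cmax is unknown.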

[1] = second compound 0.0316 µM, first compound 0.0316 µM
[2] = second compound 0.0316 µM, first compound 0.1 µM
[3] = second compound 0.0316 µM, first compound 0.316 µM
[4] = second compound 0.0316 µM, first compound 1 µM
[5] = second compound 0.0316 µM, first compound 3.16 µM
[6] = second compound 0.0316 µM, first compound 10 µM
[7] = second compound 0.1 µM, first compound 0.0316 µM
[8] = second compound 0.1 µM, first compound 0.1 µM
[9] = second compound 0.1 µM, first compound 0.316 µM
[10] = second compound 0.1 µM, first compound 1 µM
[11] = second compound 0.1 µM, first compound 3.16 µM
[12] = second compound 0.1 µM, first compound 10 µM
[13] = second compound 0.316 µM, first compound 0.0316 µM
[14] = second compound 0.316 µM, first compound 0.1 µM
[15] = second compound 0.316 µM, first compound 0.316 µM
[16] = second compound 0.316 µM, first compound 1 µM
[17] = second compound 0.316 µM, first compound 3.16 µM
[18] = second compound 0.316 µM, first compound 10 µM
[19] = second compound 1 µM, first compound 0.0316 µM
[20] = second compound 1 µM, first compound 0.1 µM
[21] = second compound 1 µM, first compound 0.316 µM
[22] = second compound 1 µM, first compound 1 µM
[23] = second compound 1 µM, first compound 3.16 µM
[24] = second compound 1 µM, first compound 10 µM
[25] = second compound 3.16 µM, first compound 0.0316 µM
[26] = second compound 3.16 µM, first compound 0.1 µM
[27] = second compound 3.16 µM, first compound 0.316 µM
[28] = second compound 3.16 µM, first compound 1 µM
[29] = second compound 3.16 µM, first compound 3.16 µM
[30] = second compound 3.16 µM, first compound 10 µM
[31] = second compound 10 µM, first compound 0.0316 µM
[32] = second compound 10 µM, first compound 0.1 µM
[33] = second compound 10 µM, first compound 0.316 µM
[34] = second compound 10 µM, first compound 1 µM
[35] = second compound 10 µM, first compound 3.16 µM
[36] = second compound 10 µM, first compound 10 µM
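Note: spheroids exposed to compounds for 7 days before viability read.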

Cc1nc(N2CCC3(CC2)COC(C)C3N)c(CO)nc1Sc1ccnc(N)c1Cl (stereo unspecified) + C#Cc1c(F)ccc2cc(O)cc(-c3ncc4c(N5CC6CCC(C5)N6)nc(OCC56CCCN5CC(F)C6)nc4c3F)c12
IC50 (second compound 0.0316 µM): 114 nM
IC50 (second compound 0.1 µM): < 31.6 nM
IC50 (second compound 0.316 µM): < 31.6 nM
IC50 (second compound 1 µM): < 31.6 nM
IC50 (second compound 3.16 µM): < 31.6 nM
IC50 (second compound 10 µM): < 31.6 nM
viability, T/C [1]: 60.5%
viability, T/C [2]: 53.8%
viability, T/C [3]: 23.1%
viability, T/C [4]: 9.38%
viability, T/C [5]: 7.2%
viability, T/C [6]: 5.04%
viability, T/C [7]: 43.9%
viability, T/C [8]: 24.9%
viability, T/C [9]: 9.87%
viability, T/C [10]: 9.03%
viability, T/C [11]: 6.97%
viability, T/C [12]: 6.34%
viability, T/C [13]: 14.7%
viability, T/C [14]: 13.1%
viability, T/C [15]: 9.91%
viability, T/C [16]: 8%
viability, T/C [17]: 6.18%
viability, T/C [18]: 5.92%
viability, T/C [19]: 12.2%
viability, T/C [20]: 10.3%
viability, T/C [21]: 8.18%
viability, T/C [22]: 5.06%
viability, T/C [23]: 6.45%
viability, T/C [24]: 4.66%
viability, T/C [25]: 8.78%
viability, T/C [26]: 9.76%
viability, T/C [27]: 7.42%
viability, T/C [28]: 6.36%
viability, T/C [29]: 5.23%
viability, T/C [30]: 4.36%
viability, T/C [31]: 7.27%
viability, T/C [32]: 4.82%
viability, T/C [33]: 6.12%
viability, T/C [34]: 4.54%
viability, T/C [35]: 4.2%
viability, T/C [36]: 1.83%

NC1c2ccccc2OC12CCN(c1cnc3c(N4CCCc5ncccc54)n[nH]c3n1)CC2 (stereo unspecified) + C#Cc1c(F)ccc2cc(O)cc(-c3ncc4c(N5CC6CCC(C5)N6)nc(OCC56CCCN5CC(F)C6)nc4c3F)c12
IC50 (second compound 0.0316 µM): < 31.6 nM
IC50 (second compound 0.1 µM): < 31.6 nM
IC50 (second compound 0.316 µM): < 31.6 nM
IC50 (second compound 1 µM): < 31.6 nM
IC50 (second compound 3.16 µM): < 31.6 nM
IC50 (second compound 10 µM): < 31.6 nM
viability, T/C [1]: 39.1%
viability, T/C [2]: 14.9%
viability, T/C [3]: 8.55%
viability, T/C [4]: 7.47%
viability, T/C [5]: 5.16%
viability, T/C [6]: 3.58%
viability, T/C [7]: 14.2%
viability, T/C [8]: 9.2%
viability, T/C [9]: 7.59%
viability, T/C [10]: 7.67%
viability, T/C [11]: 5.13%
viability, T/C [12]: 3.21%
viability, T/C [13]: 10.8%
viability, T/C [14]: 8.96%
viability, T/C [15]: 7.32%
viability, T/C [16]: 7.04%
viability, T/C [17]: 5.5%
viability, T/C [18]: 3.89%
viability, T/C [19]: 9.12%
viability, T/C [20]: 7.57%
viability, T/C [21]: 7.39%
viability, T/C [22]: 5.61%
viability, T/C [23]: 4.48%
viability, T/C [24]: 3.29%
viability, T/C [25]: 8.98%
viability, T/C [26]: 6.65%
viability, T/C [27]: 5.07%
viability, T/C [28]: 4.41%
viability, T/C [29]: 5.32%
viability, T/C [30]: 2.82%
viability, T/C [31]: 6.21%
viability, T/C [32]: 5.08%
viability, T/C [33]: 3.47%
viability, T/C [34]: 2.88%
viability, T/C [35]: 1.6%
viability, T/C [36]: 0.47%

Nc1ccn(C2OC(CO)C(O)C2(F)F)c(=O)n1 (stereo unspecified) + C#Cc1c(F)ccc2cc(O)cc(-c3ncc4c(N5CC6CCC(C5)N6)nc(OCC56CCCN5CC(F)C6)nc4c3F)c12
IC50 (second compound 0.0316 µM): < 3.16 nM
IC50 (second compound 0.1 µM): < 3.16 nM
IC50 (second compound 0.316 µM): < 3.16 nM
IC50 (second compound 1 µM): < 3.16 nM
IC50 (second compound 3.16 µM): < 3.16 nM
IC50 (second compound 10 µM): < 3.16 nM
viability, T/C (second compound 0.0316 µM, first compound 0.00316 µM): 47%
viability, T/C (second compound 0.0316 µM, first compound 0.01 µM): 8.41%
viability, T/C [1]: 7.36%
viability, T/C [2]: 8.79%
viability, T/C [3]: 6.46%
viability, T/C [4]: 8.3%
viability, T/C (second compound 0.1 µM, first compound 0.00316 µM): 28.4%
viability, T/C (second compound 0.1 µM, first compound 0.01 µM): 8.66%
viability, T/C [7]: 8.73%
viability, T/C [8]: 6.07%
viability, T/C [9]: 7.33%
viability, T/C [10]: 7.04%
viability, T/C (second compound 0.316 µM, first compound 0.00316 µM): 14.2%
viability, T/C (second compound 0.316 µM, first compound 0.01 µM): 8.55%
viability, T/C [13]: 7.4%
viability, T/C [14]: 7.69%
viability, T/C [15]: 5.4%
viability, T/C [16]: 7.34%
viability, T/C (second compound 1 µM, first compound 0.00316 µM): 9.92%
viability, T/C (second compound 1 µM, first compound 0.01 µM): 7.97%
viability, T/C [19]: 7.96%
viability, T/C [20]: 6.96%
viability, T/C [21]: 7.3%
viability, T/C [22]: 5.65%
viability, T/C (second compound 3.16 µM, first compound 0.00316 µM): 7.24%
viability, T/C (second compound 3.16 µM, first compound 0.01 µM): 6.5%
viability, T/C [25]: 6.06%
viability, T/C [26]: 5.7%
viability, T/C [27]: 4.35%
viability, T/C [28]: 5.91%
viability, T/C (second compound 10 µM, first compound 0.00316 µM): 8.28%
viability, T/C (second compound 10 µM, first compound 0.01 µM): 7.76%
viability, T/C [31]: 5.58%
viability, T/C [32]: 5.8%
viability, T/C [33]: 5.91%
viability, T/C [34]: 6.36%
